Measurements published in PubChem BioAssay AID248 (DTP/NCI, 2004).
Toxic doses and inconclusive results are not listed. Cut-off read from the data, not from the text of the source: active = T/C of 150% or more; inactive = T/C below 125%.

Tested on: L1210 leukemia ip in BDF1 mice, survival T/C
Assay: NCI In Vivo Anticancer Drug Screen. Data for tumor model L1210 Leukemia (intraperitoneal) in B6D2F1 (BDF1) mice
Details: endpoint: mean survival time, higher = longer survival
In short: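 Ratio derived from survival: compound-dosed mice over vehicle-dosed mice, all bearing a transplantable tumor.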

[1] = dose: 100.0 mg/kg/injection, schedule: Q01DX001 (ip), vehicle: saline
[2] = dose: 200.0 mg/kg/injection, schedule: Q01DX001 (ip), vehicle: saline
[3] = dose: 200.0 mg/kg/injection, schedule: Q01DX009 (ip), vehicle: Klucel (hydroxypropylcellulose) (HPC)
[4] = dose: 400.0 mg/kg/injection, schedule: Q01DX001 (ip), vehicle: saline
[5] = dose: 100.0 mg/kg/injection, schedule: Q04DX003 (ip), vehicle: saline with Tween-80
[6] = dose: 200.0 mg/kg/injection, schedule: Q04DX003 (ip), vehicle: saline with Tween-80
[7] = dose: 400.0 mg/kg/injection, schedule: Q04DX003 (ip), vehicle: saline with Tween-80
[8] = dose: 100.0 mg/kg/injection, schedule: Q01DX009 (ip), vehicle: Klucel (hydroxypropylcellulose) (HPC)
[9] = dose: 100.0 mg/kg/injection, schedule: Q01DX001 (ip), vehicle: carboxymethylcellulose (CMC)
[10] = dose: 200.0 mg/kg/injection, schedule: Q01DX001 (ip), vehicle: carboxymethylcellulose (CMC)
[11] = dose: 400.0 mg/kg/injection, schedule: Q01DX001 (ip), vehicle: carboxymethylcellulose (CMC)
[12] = dose: 100.0 mg/kg/injection, schedule: Q01DX009 (ip), vehicle: saline with Tween-80
[13] = dose: 100.0 mg/kg/injection, schedule: Q01DX001 (ip), vehicle: Klucel (hydroxypropylcellulose) (HPC)
[14] = dose: 200.0 mg/kg/injection, schedule: Q01DX001 (ip), vehicle: Klucel (hydroxypropylcellulose) (HPC)
[15] = dose: 400.0 mg/kg/injection, schedule: Q01DX001 (ip), vehicle: Klucel (hydroxypropylcellulose) (HPC)

Measured: T/C

CC(C)(C)CC(N)=O
inactive: [1] 106 % of control | dose: 100.0 mg/kg/injection, schedule: Q01DX009 (ip), vehicle: saline 101 % of control | dose: 100.0 mg/kg/injection, schedule: Q04DX003 (ip), vehicle: Klucel (hydroxypropylcellulose) (HPC) 117 % of control | dose: 100.0 mg/kg/injection, schedule: Q04DX003 (ip), vehicle: saline 103 % of control | dose: 133.0 mg/kg/injection, schedule: Q01DX009 (ip), vehicle: Klucel (hydroxypropylcellulose) (HPC) 111 % of control | dose: 133.0 mg/kg/injection, schedule: Q04DX003 (ip), vehicle: Klucel (hydroxypropylcellulose) (HPC) 123 % of control | [2] 97 % of control | [3] 111 % of control | dose: 200.0 mg/kg/injection, schedule: Q01DX009 (ip), vehicle: saline 89 % of control | dose: 200.0 mg/kg/injection, schedule: Q04DX003 (ip), vehicle: Klucel (hydroxypropylcellulose) (HPC) 124 % of control | dose: 200.0 mg/kg/injection, schedule: Q04DX003 (ip), vehicle: saline 97 % of control | dose: 300.0 mg/kg/injection, schedule: Q01DX009 (ip), vehicle: Klucel (hydroxypropylcellulose) (HPC) 105 % of control | dose: 300.0 mg/kg/injection, schedule: Q04DX003 (ip), vehicle: Klucel (hydroxypropylcellulose) (HPC) 98 % of control | [4] 103 % of control | dose: 400.0 mg/kg/injection, schedule: Q01DX009 (ip), vehicle: saline 97 % of control | dose: 400.0 mg/kg/injection, schedule: Q04DX003 (ip), vehicle: Klucel (hydroxypropylcellulose) (HPC) 109 % of control | dose: 400.0 mg/kg/injection, schedule: Q04DX003 (ip), vehicle: saline 103 % of control

OC(Cc1ccncc1)(c1ccccc1)c1ccccc1
inactive: [5] 88 % of control | [6] 88 % of control | [7] 109 % of control

COc1ccc(/C=C2\N=C(c3cc(OC)c(OC)c(OC)c3)OC2=O)cc1OC
inactive: dose: 100.0 mg/kg/injection, schedule: Q04DX002 (ip), vehicle: Klucel (hydroxypropylcellulose) (HPC) 123 % of control | dose: 200.0 mg/kg/injection, schedule: Q04DX002 (ip), vehicle: Klucel (hydroxypropylcellulose) (HPC) 101 % of control | dose: 400.0 mg/kg/injection, schedule: Q04DX002 (ip), vehicle: Klucel (hydroxypropylcellulose) (HPC) 101 % of control

O=C(O)c1occ(Cl)c1Cl
inactive: dose: 25.0 mg/kg/injection, schedule: Q01DX009 (ip), vehicle: water 101 % of control | dose: 50.0 mg/kg/injection, schedule: Q01DX009 (ip), vehicle: water 105 % of control | [1] 103 % of control | [8] 97 % of control | dose: 100.0 mg/kg/injection, schedule: Q01DX009 (ip), vehicle: water 91 % of control | dose: 100.0 mg/kg/injection, schedule: Q04DX003 (ip), vehicle: water 102 % of control | [2] 101 % of control | [3] 95 % of control | dose: 200.0 mg/kg/injection, schedule: Q04DX003 (ip), vehicle: water 90 % of control

CC1([N+](=O)[O-])COP(=O)(NCC2CCCO2)OC1 (configuration not stated)
inactive: dose: 50.0 mg/kg/injection, schedule: Q01DX001 (ip), vehicle: carboxymethylcellulose (CMC) 98 % of control | [9] 104 % of control | [10] 104 % of control | [11] 93 % of control

O=C1OC(=O)C2C3C=CC(CC12)O3 (configuration not stated)
inactive: dose: 6.25 mg/kg/injection, schedule: Q01DX009 (ip), vehicle: saline with Tween-80 97 % of control | dose: 6.25 mg/kg/injection, schedule: Q04DX003 (ip), vehicle: saline with Tween-80 96 % of control | dose: 12.5 mg/kg/injection, schedule: Q01DX009 (ip), vehicle: saline with Tween-80 97 % of control | dose: 12.5 mg/kg/injection, schedule: Q04DX003 (ip), vehicle: saline with Tween-80 91 % of control | dose: 25.0 mg/kg/injection, schedule: Q04DX003 (ip), vehicle: saline with Tween-80 94 % of control

Clc1nnc(-c2ccccc2)c(-c2ccccc2)n1
inactive: dose: 25.0 mg/kg/injection, schedule: Q01DX009 (ip), vehicle: saline with Tween-80 95 % of control | dose: 50.0 mg/kg/injection, schedule: Q01DX009 (ip), vehicle: saline with Tween-80 95 % of control | [12] 97 % of control

S=P(NC1CCCCC1)(NC1CCCCC1)NC1CCCCC1
inactive: [1] 95 % of control | [5] 101 % of control | [2] 95 % of control | [6] 97 % of control | [4] 90 % of control | [7] 97 % of control

COc1ccccc1N=C(C)CC(C)=O
inactive: [13] 100 % of control | [14] 91 % of control | [15] 99 % of control

CC1(c2ccc(Cl)cc2)NC(=O)N(CC(=O)Nc2ccccc2)C1=O (configuration not stated)
inactive: dose: 100.0 mg/kg/injection, schedule: Q04DX003 (ip), vehicle: acetone 101 % of control | dose: 200.0 mg/kg/injection, schedule: Q04DX003 (ip), vehicle: acetone 90 % of control | dose: 400.0 mg/kg/injection, schedule: Q04DX003 (ip), vehicle: acetone 93 % of control

CCc1ccccc1NC(=O)Nc1ccc(S(N)(=O)=O)cc1
inactive: [8] 98 % of control | [3] 97 % of control | dose: 400.0 mg/kg/injection, schedule: Q01DX009 (ip), vehicle: Klucel (hydroxypropylcellulose) (HPC) 103 % of control

CC(O)CNC1CCCCC1 (configuration not stated)
inactive: dose: 75.0 mg/kg/injection, schedule: Q01DX001 (ip), vehicle: saline 92 % of control | dose: 150.0 mg/kg/injection, schedule: Q01DX001 (ip), vehicle: saline 100 % of control

c1ccc(C(c2ccccc2)c2ccncc2)cc1
inactive: dose: 100.0 mg/kg/injection, schedule: Q04DX002 (ip), vehicle: saline with Tween-80 87 % of control | dose: 200.0 mg/kg/injection, schedule: Q04DX002 (ip), vehicle: saline with Tween-80 90 % of control | dose: 400.0 mg/kg/injection, schedule: Q04DX002 (ip), vehicle: saline with Tween-80 87 % of control

O=C(CF)[O][Sb]([O]C(=O)CF)([c]1ccccc1)([c]1ccccc1)[c]1ccccc1
inactive: dose: 5.0 mg/kg/injection, schedule: Q04DX003 (ip), vehicle: saline with Tween-80 92 % of control | dose: 10.0 mg/kg/injection, schedule: Q04DX003 (ip), vehicle: saline with Tween-80 101 % of control | dose: 20.0 mg/kg/injection, schedule: Q04DX003 (ip), vehicle: saline with Tween-80 106 % of control

O=C(Nc1ccccc1)NC1CCCCC1
inactive: [13] 100 % of control | [14] 95 % of control | [15] 101 % of control

CC(C)(COC(=O)COc1ccc(Cl)cc1Cl)[N+](=O)[O-]
inactive: [8] 97 % of control | [3] 92 % of control

COc1cccc(/C=C(\S)C(=O)O)c1O
inactive: [9] 86 % of control | [10] 89 % of control | [11] 89 % of control

O=C1OC(=O)C2C1C1C=CC2C1(c1ccccc1)c1ccccc1 (configuration not stated)
inactive: [9] 96 % of control | [10] 96 % of control | [11] 96 % of control

COc1c(Cl)cc2c(c1OC)N(C)C1N3C(=O)C4(C)SSC3(CC21O)C(=O)N4C (configuration not stated)
inactive: dose: 0.12 mg/kg/injection, schedule: Q01DX009 (ip), vehicle: Klucel (hydroxypropylcellulose) (HPC) 100 % of control | dose: 0.25 mg/kg/injection, schedule: Q01DX009 (ip), vehicle: Klucel (hydroxypropylcellulose) (HPC) 101 % of control | dose: 0.5 mg/kg/injection, schedule: Q01DX009 (ip), vehicle: Klucel (hydroxypropylcellulose) (HPC) 108 % of control | dose: 1.0 mg/kg/injection, schedule: Q01DX009 (ip), vehicle: Klucel (hydroxypropylcellulose) (HPC) 111 % of control

COc1ccc(C(=Cc2ccccc2Br)c2ccc(OC)cc2)cc1
inactive: [12] 102 % of control | [5] 106 % of control | dose: 200.0 mg/kg/injection, schedule: Q01DX009 (ip), vehicle: saline with Tween-80 98 % of control | [6] 98 % of control | dose: 400.0 mg/kg/injection, schedule: Q01DX009 (ip), vehicle: saline with Tween-80 93 % of control | [7] 92 % of control

O=c1c(O)c(-c2ccc(-c3oc4ccccc4c(=O)c3O)cc2)oc2ccccc12
inactive: dose: 50.0 mg/kg/injection, schedule: Q01DX001 (ip), vehicle: saline 97 % of control | [1] 89 % of control | [2] 91 % of control | [4] 101 % of control
